target: T1, solubilized Aβ40 (Homo sapiens, UniProt P05067); assay: Mass spectroscopy (MS) assay of binding to soluble Aβ40; set-up: key: “+” = active; “−” = inactive; settings: 200 μM test compound, 20 μM solubilized Aβ40, 20% ethanol, pH 7.4, electrospray ionization MS
T1 construct: 20 μM of solubilized Aβ40
Experimental: Test compounds were purchased from commercial sources or synthesized and screened by mass spectroscopy (“MS”) assay, which gives data on the ability of compounds to bind to an amyloid protein. Samples were prepared as aqueous solutions containing 20% ethanol, 200 μM of a test compound and 20 μM of solubilized Aβ40. The pH value of each sample was adjusted to 7.4 (±0.2) by addition of 0.1% aqueous sodium hydroxide. The solutions were then analyzed by electrospray ionization mass spectroscopy using a Waters ZQ 4000 mass spectrometer. Samples were introduced by direct infusion at a flow-rate of 25 μL/min within 2 hr. after sample preparation. The source temperature was kept at 70° C. and the cone voltage was 20 V for all the analysis. Data were processed using Masslynx 3.5 software. The MS assay gives data on the ability of compounds to bind to Aβ, whereas the ThT, EM and CD assays give data on inhibition of fibrillogenesis.

T1 sequence (P05067 672-711 limits assumed): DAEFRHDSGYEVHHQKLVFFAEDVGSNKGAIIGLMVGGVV

Row | Compound | MS Assay
1 | N=C(NCCCCCCCN)c1ccc(Br)cc1 [Compound 145] | +
2 | N=C(NCCCCCCCNC(=O)c1ccc(Br)cc1)c1ccc(Br)cc1 [Compound 146] | +
3 | N/C(=N\O)c1ccc(OCCCCCCCCCNO)cc1 [Compound 147] | −
4 | CCOC(=O)c1ccc(C(=O)NCCCCCCCNC(=O)c2ccc(C(=N)N)cc2)cc1 [Compound 148] | +
5 | CCOC(=O)c1ccc(C(=O)NCCCCCCCCCNC(=O)c2ccc(C(=N)N)cc2)cc1 [Compound 149] | +
6 | N=C(NCCCCCNC(=N)c1ccc(Br)cc1)c1ccc(Br)cc1 [Compound 150] | +

Now from value to compound:

Row | MS Assay | Compound
7 | + | N=C(NCCCCCCCCCNC(=N)c1ccc(Br)cc1)c1ccc(Br)cc1 [Compound 151]
8 | − | COc1ccc(C(=N)NCCCCCCCCCNC(=N)c2ccc(OC)cc2)cc1 [Compound 152]
9 | + | COc1ccc(C(=N)NCCN2CCN=C2c2ccc(OC)cc2)cc1 [Compound 153]
10 | + | COc1ccc(C(=N)NCCCCCNC(=N)c2ccc(OC)cc2)cc1 [Compound 154]
11 | − | N=C(N)c1ccc(C(=O)NCCN(CCNC(=O)c2ccc(C(=N)N)cc2)C(=O)c2ccc(C(=N)N)cc2)cc1 [Compound 155]
12 | − | Nc1ccc(OCCCCCOc2ccc(NC3=NCCN3)cc2)cc1 [Compound 156]
13 | − | N=C(N)c1ccc(S(=O)(=O)NCCCCCCCCCNS(=O)(=O)c2ccc(C(=N)N)cc2)cc1 [Compound 158]

Source: patent US7262223B2, “Amidine derivatives for treating amyloidosis” (Neurochem (International) Limited, priority 2004, dated 2007)
